From ChEMBL document CHEMBL1201862, “PubChem BioAssay data set” (2004)
Active and inactive are the calls of the source.

Legend:
Aminopeptidase N = target: T1, Aminopeptidase N (Plasmodium falciparum FcB1/Columbia, UniProt O96935); test: P. falciparum M1AAP inhibitors, biochemical, fluorogenic H-Leu-NHMec substrate, 1536-well (AID 1445); set-up: species or system Plasmodium falciparum 3D7, 3D7
T1 sequence (O96935 whole entry): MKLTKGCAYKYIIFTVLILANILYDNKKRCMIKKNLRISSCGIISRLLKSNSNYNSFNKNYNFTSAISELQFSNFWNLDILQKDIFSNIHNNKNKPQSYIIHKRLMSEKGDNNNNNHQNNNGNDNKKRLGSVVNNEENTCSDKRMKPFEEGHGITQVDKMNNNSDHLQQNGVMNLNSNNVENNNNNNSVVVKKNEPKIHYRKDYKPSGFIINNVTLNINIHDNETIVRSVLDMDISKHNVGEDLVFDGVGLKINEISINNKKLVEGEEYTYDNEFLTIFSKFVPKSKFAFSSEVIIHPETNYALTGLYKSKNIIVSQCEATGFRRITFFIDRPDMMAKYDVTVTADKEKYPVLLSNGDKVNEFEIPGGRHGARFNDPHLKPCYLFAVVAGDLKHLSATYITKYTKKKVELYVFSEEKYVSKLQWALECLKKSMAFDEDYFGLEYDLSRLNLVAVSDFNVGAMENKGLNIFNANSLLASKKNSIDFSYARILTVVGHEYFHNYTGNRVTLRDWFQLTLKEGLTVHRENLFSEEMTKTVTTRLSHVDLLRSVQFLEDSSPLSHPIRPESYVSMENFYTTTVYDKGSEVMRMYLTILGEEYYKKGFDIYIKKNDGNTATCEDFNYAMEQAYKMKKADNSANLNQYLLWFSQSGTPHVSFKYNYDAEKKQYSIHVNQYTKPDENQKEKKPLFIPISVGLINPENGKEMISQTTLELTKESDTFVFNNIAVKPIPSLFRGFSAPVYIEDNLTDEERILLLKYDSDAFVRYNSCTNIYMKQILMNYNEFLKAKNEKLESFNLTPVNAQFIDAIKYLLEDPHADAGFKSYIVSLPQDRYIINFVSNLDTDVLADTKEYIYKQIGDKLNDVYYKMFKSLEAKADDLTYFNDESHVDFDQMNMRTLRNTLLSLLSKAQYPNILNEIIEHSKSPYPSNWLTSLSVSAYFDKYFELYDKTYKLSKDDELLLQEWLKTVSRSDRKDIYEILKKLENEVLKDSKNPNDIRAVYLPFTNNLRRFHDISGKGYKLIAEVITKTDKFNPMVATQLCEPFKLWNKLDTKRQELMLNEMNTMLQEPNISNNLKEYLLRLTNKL

[1] = target: Endoplasmic reticulum aminopeptidase 1 (Homo sapiens, UniProt Q9NZ08); test: ERAP1 aminopeptidase inhibitors, dose response, biochemical, cherry-pick, set 2, plate reader (AID 743314)
[2] = human group III sPLA2 inhibitors, dose response, biochemical, QFRET, IC50 (AID 743457);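 also: green fluorescence rise as the enzyme cleaves BODIPY PC-A2 in liposomes; potency for inhibition of the enzyme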
[3] = target: T2, Heat shock factor protein 1 (Mus musculus, UniProt P38532); test: inhibition of MG132-induced HSE-luciferase signal, confirmation, cell-based, NIH3T3, luminescence, dose retest (AID 2382); format: functional;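 also: NIH3T3 fibroblasts with HSF1-driven luciferase reporter stressed by proteasome inhibitor MG132; luminescence from HSF1-driven luciferase expression after 8 hours of MG132 stress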
T2 sequence (P38532 whole entry): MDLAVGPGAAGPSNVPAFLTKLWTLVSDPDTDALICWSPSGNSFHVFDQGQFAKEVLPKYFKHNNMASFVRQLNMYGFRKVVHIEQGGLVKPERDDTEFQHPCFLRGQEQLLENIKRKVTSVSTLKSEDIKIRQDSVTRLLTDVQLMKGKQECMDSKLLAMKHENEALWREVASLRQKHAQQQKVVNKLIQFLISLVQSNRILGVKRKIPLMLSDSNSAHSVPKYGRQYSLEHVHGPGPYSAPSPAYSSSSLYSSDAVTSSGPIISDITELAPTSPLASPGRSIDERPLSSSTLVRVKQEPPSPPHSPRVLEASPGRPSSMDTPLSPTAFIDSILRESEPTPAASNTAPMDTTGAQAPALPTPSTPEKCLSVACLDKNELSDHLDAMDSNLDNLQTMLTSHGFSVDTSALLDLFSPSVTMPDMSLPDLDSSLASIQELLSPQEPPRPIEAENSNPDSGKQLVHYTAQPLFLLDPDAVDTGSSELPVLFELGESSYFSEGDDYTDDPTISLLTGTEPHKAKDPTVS

Albumin = Albumin (Bos taurus, UniProt P02769); test: Counterscreen for inhibitors of T-cell receptor (TCR)-CD3 interaction: Fluorescence-based biochemical high throughput dose response assay to identify inhibitors of T-cell receptor (TCR)-CD3 interaction using a TAMRA-labeled BSA probe.; format: functional
Leucine aminopeptidase = target: T3, Leucine aminopeptidase (Plasmodium falciparum 3D7, UniProt Q8IL11); test: P. falciparum M17LAP inhibitors, primary screen, biochemical, fluorogenic H-Leu-NHMec substrate, 1536-well (AID 1619); format: functional
T3 sequence (Q8IL11 whole entry): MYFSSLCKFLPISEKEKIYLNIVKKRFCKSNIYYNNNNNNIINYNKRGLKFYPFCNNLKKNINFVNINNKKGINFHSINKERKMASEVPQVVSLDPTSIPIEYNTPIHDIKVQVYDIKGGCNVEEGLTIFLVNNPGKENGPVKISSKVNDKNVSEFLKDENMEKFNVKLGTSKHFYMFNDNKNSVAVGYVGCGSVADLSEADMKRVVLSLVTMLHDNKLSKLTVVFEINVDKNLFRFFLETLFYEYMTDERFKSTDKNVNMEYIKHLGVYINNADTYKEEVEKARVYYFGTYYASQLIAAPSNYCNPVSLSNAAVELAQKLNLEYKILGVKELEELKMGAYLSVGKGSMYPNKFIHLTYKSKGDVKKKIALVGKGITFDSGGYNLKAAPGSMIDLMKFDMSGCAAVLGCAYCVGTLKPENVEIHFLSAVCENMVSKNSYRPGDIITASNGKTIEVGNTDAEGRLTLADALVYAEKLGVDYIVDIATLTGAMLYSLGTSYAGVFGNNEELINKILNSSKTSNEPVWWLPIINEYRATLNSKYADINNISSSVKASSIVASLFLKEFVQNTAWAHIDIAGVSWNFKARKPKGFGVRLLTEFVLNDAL

Major prion protein = Major prion protein (Homo sapiens, UniProt P04156); format: functional, cell-based
[4] = cytotoxicity in OVCAR8 ovarian cancer cells, dose response, PAX8 project, cell-based, plate reader, dry powder samples (AID 743197); format: functional; details: OVCAR-8
Paired box protein Pax-8 = Paired box protein Pax-8 (Homo sapiens, UniProt Q06710); test: inhibitors of PAX8-driven TPO luciferase reporter, dose response, RMG-I cells, cherry-pick (AID 687027); format: functional, cell-based;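 also: luciferase reporter driven by Pax8 target thyroperoxidase promoter measured by SteadyGlo luminescence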
[5] = NIH:OVCAR-3 ovarian cancer cell cytotoxicity, dose response, PAX8 inhibitor project, plate reader, dry powder samples (AID 743044); format: functional, cell-based
[6] = IGROV1 ovarian cancer cell cytotoxicity, dose response, PAX8 inhibitor project, plate reader, dry powder samples (AID 743043); format: functional, cell-based; details: IGROV-1
[7] = A375 melanoma cell cytotoxicity, dose response, counter-screen for MITF inhibitor project, CellTiter-Glo luminescence, dry powder, set 2 (AID 624489); format: functional, cell-based; details: A-375;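 also: actives are compounds lowering A375 viability meaning general cytotoxicity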
[8] = A375 melanoma cell viability loss, dose response, counter-screen for MITF inhibitor project, CellTiter-Glo luminescence, dry powder, set 4 (AID 624364); format: functional, cell-based; details: A-375;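 also: A375 melanoma cells are MITF independent so this is a counter screen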
[9] = MC4R antagonists, dose response, counter-screen for LGR2 antagonist project, cell-based, plate reader, cherry pick (AID 743444); format: functional;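 also: transfected HEK 293 cells stimulated with alpha-MSH peptide; potency of inhibitors of the alpha-MSH evoked signal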
[10] = A549 cell cytotoxicity, dose response, cytotoxicity control, plate reader, cherry-pick, antagonist series (AID 743412); format: functional, cell-based
[11] = LGR2 antagonists, dose response, cell-based, HEK293, CRE-luciferase reporter, cherry pick, set 2 (AID 743343); format: functional;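 also: transfected cells were stimulated with diluted bursicon conditioned medium after compound addition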
[12] = HepG2 cell cytotoxicity, dose response, cytotoxicity control, plate reader, cherry-pick, antagonist series (AID 743416); format: functional, cell-based
[13] = P. falciparum 3D7-ScDHODH growth inhibitors, dose response, SYBR Green, dry powder samples (AID 1159570); format: functional, cell-based;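 also: parasite growth measured after 72 hours of compound exposure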
[14] = HepG2 cell cytotoxicity, dose response, cytotoxicity control, plate reader, dry powder samples (AID 1159569); format: functional, cell-based;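 also: inhibitor potency with signal falling toward the positive control level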
[15] = P. falciparum Dd2 growth inhibitors, dose response, SYBR Green, dry powder samples (AID 1159566); format: functional, cell-based;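 also: potency for growth inhibition with lower SYBR green DNA signal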
[16] = P. falciparum Dd2 growth inhibitors, dose response, SYBR Green, cherry-picked samples (AID 1159567); format: functional, cell-based
[17] = P. falciparum ATP4 D1247Y mutant growth inhibitors, dose response, NITD609-resistant line, SYBR Green, dry powder (AID 1159571); format: functional, cell-based;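 also: parasites synchronized at ring stage by sorbitol before testing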
[18] = cytotoxicity toward NIH3T3 fibroblasts, dose response, counter-screen, cell-based, ATP luminescence, mouse fibroblasts (AID 2010); format: functional;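 also: cells exposed to compound for about 90 hours before reading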
[19] = inhibitors of intracellular T. cruzi replication, confirmation, NIH3T3 host cells, beta-gal luminescence (AID 2044); format: functional, cell-based;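 also: intracellular parasites grown in NIH/3T3 mouse fibroblasts as host cells; luminescent beta-galactosidase reporter signal from transgenic T. cruzi replicating inside host cells; inhibitors lower the luminescence signal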
[20] = target: T4, RNA-binding protein pos-1 (Caenorhabditis elegans, UniProt G5EF15); test: inhibitors of POS-1/mex-3 RNA binding, dose response, biochemical, fluorescence polarization (AID 1964);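 also: purified POS-1 fused to maltose binding protein made in E. coli; potency of compounds blocking POS-1 binding to fluorescent RNA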
T4 sequence (G5EF15 whole entry): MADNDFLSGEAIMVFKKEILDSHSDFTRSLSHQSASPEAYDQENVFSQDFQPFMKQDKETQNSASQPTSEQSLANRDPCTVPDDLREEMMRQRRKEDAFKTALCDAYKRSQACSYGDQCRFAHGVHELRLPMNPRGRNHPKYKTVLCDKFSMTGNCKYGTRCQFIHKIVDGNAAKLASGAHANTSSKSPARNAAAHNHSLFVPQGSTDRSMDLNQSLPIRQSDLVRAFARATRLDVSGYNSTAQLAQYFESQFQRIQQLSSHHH

[21] = target: T5, Zinc finger protein mex-5 (Caenorhabditis elegans, UniProt Q9XUB2); test: MEX-5/TCR-2 RNA interaction inhibitors, dose response, biochemical, C. elegans, fluorescence polarization (AID 1960)
T5 sequence (Q9XUB2 whole entry): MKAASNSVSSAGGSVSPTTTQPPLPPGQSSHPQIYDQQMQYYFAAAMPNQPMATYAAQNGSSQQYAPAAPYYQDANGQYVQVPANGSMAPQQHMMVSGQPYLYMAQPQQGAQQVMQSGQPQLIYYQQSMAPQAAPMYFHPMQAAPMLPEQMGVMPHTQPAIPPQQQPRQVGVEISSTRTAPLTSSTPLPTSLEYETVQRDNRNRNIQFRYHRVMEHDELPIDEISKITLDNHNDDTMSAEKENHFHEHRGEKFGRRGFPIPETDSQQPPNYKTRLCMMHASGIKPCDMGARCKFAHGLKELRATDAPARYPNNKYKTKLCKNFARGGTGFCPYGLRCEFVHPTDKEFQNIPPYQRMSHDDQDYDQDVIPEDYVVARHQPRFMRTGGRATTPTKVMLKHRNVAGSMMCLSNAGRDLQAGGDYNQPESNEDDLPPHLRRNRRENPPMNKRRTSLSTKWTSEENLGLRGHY

[22] = HepG2 cell cytotoxicity, dose response, cytotoxicity control, cherry-picked samples (AID 1159577); format: functional, cell-based

CCCc1cc(=O)oc2c(CN(CC)CC)c(O)c(Cl)cc12
IC50 (Aminopeptidase N): 37 µM (active) | AC50 [1]: 7.13 µM (active)

Cc1cc(C(=O)NN=C(S)NC2CCCCC2)cs1
IC50 [2]: > 122 µM (inactive)

CCn1c(S)nnc1-c1cccn(Cc2ccc(Cl)cc2Cl)c1=O
IC50 [2]: > 122 µM (inactive)

CC/C(NNC(=O)c1ccccc1O)=C1/C(=O)NC(=O)N(Cc2ccccc2)C1=O
IC50 (Aminopeptidase N): 7.8 µM (active) | EC50 [3]: 30.2 µM (active) | IC50 (Albumin): > 94.1 µM (inactive) | IC50 (Leucine aminopeptidase): 47.3 µM (active)

CCCCOc1ccc(C(=O)C2=C(O)C(=O)N(Cc3cccnc3)C2c2ccncc2)c(C)c1 (configuration not stated)
IC50 (Major prion protein): 4.21 µM (active) | IC50 (cells): > 138 µM (inactive)

Cc1nc(SCC(=O)NNC(=O)c2ccc(F)cc2)c2ccccc2n1
IC50 (Major prion protein): 2.26 µM (active) | IC50 (cells): > 138 µM (inactive)

O=c1ccc2cc(O[C@@H]3O[C@H](CO)[C@@H](O)[C@H](O)[C@H]3O)c(O)cc2o1
AC50 [1]: 1.72 µM (active)

COc1cccc(-c2ccc3c(c2)[C@H]2[C@H](CCN2S(=O)(=O)c2ccccc2F)[C@@H](CO)N3)c1
AC50 [4]: 21.9 µM (active) | AC50 (Paired box protein Pax-8): 3.92 µM (active) | AC50 [5]: 19.1 µM (active) | AC50 [6]: 31.4 µM (active)

O=C1C(NS(=O)(=O)c2ccccc2)=C(N2CCCCC2)C(=O)c2ccccc21
AC50 [7]: > 70 µM (inactive) | AC50 [8]: > 70 µM (inactive)

N#C[C@@H]1[C@H](c2ccc(C#Cc3ccccc3F)cc2)[C@@H](CO)N1C(=O)C1CCC1
AC50 [9]: 22.5 µM (active) | AC50 [10]: 31.2 µM (active) | AC50 [11]: 29.9 µM (active) | AC50 [12]: 31.5 µM (active)

C[C@@H]1CN([C@H](C)CO)C(=O)c2c(c3ccccc3n2C)-c2ccccc2CO[C@@H]1CN(C)C(=O)[C@H](C)c1ccccc1
AC50 [13]: 1.66 µM (active) | AC50 [14]: 45.5 µM (active) | AC50 [15]: 1.1 µM (active) | AC50 [16]: 1.39 µM (active) | AC50 [17]: 1.33 µM (active)

Cc1ccc(-c2ccc([C@@H]3[C@H](CO)N4CCCCN(C(=O)Nc5cccc(F)c5)C[C@@H]34)cc2)cc1
AC50 [4]: > 70 µM (inactive) | AC50 [5]: 7.83 µM (active) | AC50 [6]: 18.1 µM (active)

O=C(N/N=C/c1cc(Cl)cc([N+](=O)[O-])c1O)c1ccc2c(c1)OCO2
EC50 [18]: 5.65 µM (active) | EC50 [19]: 1.1 µM (active) | EC50 [20]: 127 µM (active) | IC50 (Albumin): > 94.1 µM (inactive) | EC50 [21]: 241 µM (active)

CCCC#Cc1ccc([C@H]2[C@H](CO)N3CCCCN(CC4CCOCC4)C[C@@H]23)cc1
AC50 [22]: 26.9 µM (active) | AC50 [16]: 3.68 µM (active)

CCCNC[C@@H]1[C@@H](c2ccc(C3=CCCC3)cc2)[C@@H](CO)N1C(=O)C1CCCC1
AC50 [22]: 32.4 µM (active) | AC50 [16]: 4 µM (active)

COc1cccc(NC(=O)N2[C@H](CO)[C@@H](c3ccccc3)[C@H]2CNCC(C)C)c1
AC50 [13]: 1.44 µM (active) | AC50 [14]: 43.5 µM (active) | AC50 [15]: 1.58 µM (active) | AC50 [16]: 1.75 µM (active) | AC50 [17]: 1.64 µM (active)

O=C(NC1=C(c2ccc(Oc3ccccc3)cc2)C(=O)c2ccccc2C1=O)c1ccccc1
AC50 [7]: > 70 µM (inactive) | AC50 [8]: > 70 µM (inactive)
